Non-standard residues stand in square brackets, D forms with d. Residues, ends and D or L forms follow the SMILES beside them.
Test system: U-87MG sub-cutaneous xenograft tumors
Assay: Sub-cutaneous U-87MG xenograft, tumor growth
Format: in vivo, human U-87MG in nude mice
Details: s.c. U-87MG xenograft, 20 μM intra-tumoral every two days, end point, n=5
Description: Figure 3 VDAC1-based peptides inhibit tumor growth, cell proliferation, and invasion in a glioblastoma xenograft mice model A. Graphical representation of the xenograft experiment protocol used. U-87MG cells (3×10^6/mouse) were inoculated into male nude mice as described in Materials and Methods available online in Supplemental information. B, C. […] The calculated average tumor volumes are presented as means ± SE (n=5) (* p≤0.05, ** p≤0.01). C. The volume of peptide-treated tumors is presented as % of control for each indicated time. Results = mean ± SE (n=5) (* p≤0.05, ** […]). […] E. Quantitative analysis of Ki-67 positive cells. Results = mean ± SE (n=5) (*** p<0.001). […]
U-87MG glioblastoma cells (3 x10^6) were inoculated s.c. into the hind leg flanks of athymic eight-week old male nude mice (Envigo). Thirteen days post-inoculation, tumor volume was measured (100-130 mm^3) and mice were randomized into three groups (5 animals/group), treated with PBS containing 0.26% DMSO or peptide in PBS, 0.26% DMSO/20 μM every second day. […]
(Calbiochem, UK). […] Thirteen days post-inoculation, using various primary antibodies (sources and dilutions tumor volume was measured and calculated (100-130 as detailed in supplementary Table 2), followed by mm3) and mice were randomized into three groups (5 the appropriate HRP-conjugated secondary antibodies mice/group). […]

Question: For `CC[C@@H](C)[C@@H](NC(=O)[C@@H](CCCCN)NC(=O)[C@H](NC(=O)[C@@H](CCC(N)=O)NC(=O)[C@@H](CCCNC(=N)N)NC(=O)[C@@H](CC(C)C)NC(=O)CNC(=O)[C@@H](Cc1ccccc1)NC(=O)CNC(=O)[C@@H](Cc1ccc(O)cc1)NC(=O)CNC(=O)[C@@H](CCCCN)NC(=O)[C@H](NC(=O)[C@@H](Cc1ccccc1)NC(=O)[C@H](NC(=O)[C@@H](CC(=O)O)NC(=O)[C@H](N)CCCNC(=N)N)C(C)C)[C@H](C)O)[C@H](C)CC)C(=O)N[C@H](Cc1c[nH]c2ccccc12)C(=O)N[C@H](Cc1ccccc1)C(=O)N[C@H](CCC(N)=O)C(=O)N[C@H](CC(N)=O)C(=O)N[C@H](CCCNC(=N)N)C(=O)N[C@H](CCCNC(=N)N)C(=O)N[C@H](CCSC)C(=O)N[C@H](CCCCN)C(=O)N[C@H](Cc1c[nH]c2ccccc12)C(=O)N[C@H](CCCCN)C(=O)N[C@H](CCCCN)C(=O)O` [D-ΔN-Ter-Antp] (H-[dR][dD][dV][dF][dT][dK]G[dY]G[dF]G[dL][dR][dQ][dI][dK][dI][dW][dF][dQ][dN][dR][dR][dM][dK][dW][dK][dK]-OH; N-terminus and C-terminus assumed), which “lower average tumor volume relative to PBS/DMSO” value is on record?
Answer: Its value is “about 75%”.

From paper PMC5458211, “Mitochondrial VDAC1-based peptides: Attacking oncogenic properties in glioblastoma” (Oncotarget, 2017)
